Laboratory results reported in patent publication US9820937B2, “Pharmaceutical composition formulated for pre-gastric absorption of monoamine oxidase B inhibitors” (R.P. Scherer Technologies, LLC, priority 1997, dated 2017).

Molecular target: T1, MAO-B (Homo sapiens, UniProt P27338)
T1 construct: from tissue; host or cells: whole body of living study subjects (in vivo); no isolated enzyme
T1 sequence (P27338 1-520): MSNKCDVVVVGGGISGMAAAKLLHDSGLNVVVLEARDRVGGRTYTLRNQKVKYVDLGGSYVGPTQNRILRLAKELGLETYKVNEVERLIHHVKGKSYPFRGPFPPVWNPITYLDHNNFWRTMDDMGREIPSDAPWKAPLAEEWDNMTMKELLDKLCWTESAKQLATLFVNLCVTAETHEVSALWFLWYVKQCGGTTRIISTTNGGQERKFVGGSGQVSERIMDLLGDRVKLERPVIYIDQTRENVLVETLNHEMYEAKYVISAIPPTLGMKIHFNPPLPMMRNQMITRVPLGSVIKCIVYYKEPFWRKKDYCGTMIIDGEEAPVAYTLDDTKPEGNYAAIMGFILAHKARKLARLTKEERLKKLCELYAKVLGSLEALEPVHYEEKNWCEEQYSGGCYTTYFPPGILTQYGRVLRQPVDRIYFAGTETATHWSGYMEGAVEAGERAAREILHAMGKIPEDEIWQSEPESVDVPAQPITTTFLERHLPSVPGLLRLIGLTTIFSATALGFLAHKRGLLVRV
Assay type: in vivo
Conditions: four pharmacokinetic studies

C#CCN[C@H](C)Cc1ccccc1 [N-desmethylselegiline]
correlation of Log 10 plasma AUC with 24 hour cumulative urinary excretion of phenethylamine: no significant correlation
